Data published in ChEMBL document CHEMBL1201862, “PubChem BioAssay data set” (2004).
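Method: 48-hour compound exposure of cells in 96-well plates, five concentrations, linear interpolation of endpoints. At the GI50, growth is halved.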 Active and inactive are the calls of the source. Rule as the data show it: active = GI50 up to about 1.1 µM and inactive = higher.

Experiments:
Test in all cases: DTP human tumour cell line panel, 48 h
OVCAR-8 = test system: OVCAR-8
Malme-3M = test system: Malme-3M
K562 = test system: K562
UO-31 = test system: UO-31
OVCAR-4 = test system: OVCAR-4
TK-10 = test system: TK-10
NCI-H522 = test system: NCI-H522
SF-268 = test system: SF-268
COLO 205 = test system: COLO 205
MCF7 = test system: MCF7
HL-60 = test system: HL-60
MDA-MB-231 = test system: MDA-MB-231
NCI-H23 = test system: NCI-H23
A498 = test system: A498
NCI-H226 = test system: NCI-H226
UACC-62 = test system: UACC-62
SR = test system: SR
LOX IMVI = test system: LOX IMVI
MDA-N = test system: MDA-N
SNB-19 = test system: SNB-19

SMILES | GI50 (OVCAR-8) | GI50 (Malme-3M) | GI50 (K562) | GI50 (UO-31) | GI50 (OVCAR-4) | GI50 (TK-10) | GI50 (NCI-H522) | GI50 (SF-268) | GI50 (COLO 205) | GI50 (MCF7) | GI50 (HL-60) | GI50 (MDA-MB-231) | GI50 (NCI-H23) | GI50 (A498) | GI50 (NCI-H226) | GI50 (UACC-62) | GI50 (SR) | GI50 (LOX IMVI) | GI50 (MDA-N) | GI50 (SNB-19)
C=C1C(=O)O[C@@H]2C[C@@H](C)[C@@H]3C=CC(=O)[C@@]3(C)[C@@H](OC(=O)CCCC(=O)O[C@H]3[C@@H]4C(=C)C(=O)O[C@@H]4C[C@@H](C)[C@@H]4C=CC(=O)[C@]43C)[C@H]12 | 0.0131 µM (active) | 0.0176 µM (active) | < 0.01 µM (active) | 0.135 µM (active) | 0.0455 µM (active) | 0.0682 µM (active) | 0.0102 µM (active) | 0.0693 µM (active) | 0.0197 µM (active) | 0.0348 µM (active) | < 0.01 µM (active) | 0.0284 µM (active) | 0.0853 µM (active) | 0.181 µM (active) | 0.505 µM (active) | 0.0565 µM (active) | < 0.01 µM (active) | 0.0518 µM (active) | 0.0183 µM (active) | 1.05 µM (active)
CC1=NN(c2nc(N)nc(/C(C#N)=C\c3csc([N+](=O)[O-])c3)n2)C(C)(C)C1 | 25.1 µM (inactive) |  | 39.4 µM (inactive) | 37.4 µM (inactive) | 21.9 µM (inactive) | 34.2 µM (inactive) | 21.3 µM (inactive) | 21.8 µM (inactive) |  | 35.6 µM (inactive) | 5.22 µM (inactive) | 26.9 µM (inactive) | 32.1 µM (inactive) | > 100 µM (inactive) | 25.8 µM (inactive) |  | 51.1 µM (inactive) | 71.3 µM (inactive) | 27.7 µM (inactive) | 
Cc1nnc2sc(-c3ccc(-c4ccccc4Cl)o3)nn12 | 19.8 µM (inactive) | 47.3 µM (inactive) | 21.2 µM (inactive) | 33.7 µM (inactive) | 31.8 µM (inactive) | 45.1 µM (inactive) | 25.4 µM (inactive) | 33.9 µM (inactive) | 38.5 µM (inactive) | 29.1 µM (inactive) | 19.8 µM (inactive) | 53.2 µM (inactive) | 24.2 µM (inactive) | 37.2 µM (inactive) | 20.8 µM (inactive) | 35.2 µM (inactive) | 19 µM (inactive) | 20.9 µM (inactive) | 17.9 µM (inactive) | 40.5 µM (inactive)
COc1cccc(Cc2cc(=O)c3ccc(C)nc3[nH]2)c1 | > 100 µM (inactive) | 57.7 µM (inactive) | 86.7 µM (inactive) | > 100 µM (inactive) |  | > 100 µM (inactive) | 13.2 µM (inactive) | > 100 µM (inactive) | > 100 µM (inactive) | > 100 µM (inactive) | 55.5 µM (inactive) | > 100 µM (inactive) | > 100 µM (inactive) | 73.5 µM (inactive) | > 100 µM (inactive) | > 100 µM (inactive) | 35.8 µM (inactive) | > 100 µM (inactive) | > 100 µM (inactive) | > 100 µM (inactive)
CCOC(=O)C#Cc1cccc(C#CC(=O)OCC)c1 | 6.98 µM (inactive) | 5.14 µM (inactive) | 1.91 µM (inactive) | 4.51 µM (inactive) | 3.59 µM (inactive) | 5.47 µM (inactive) | 15.8 µM (inactive) | 6.52 µM (inactive) | 5.32 µM (inactive) | 5.62 µM (inactive) | 1.8 µM (inactive) | 5.79 µM (inactive) | 3.66 µM (inactive) | 12.5 µM (inactive) | 6.58 µM (inactive) | 4.94 µM (inactive) | 0.506 µM (active) | 2.07 µM (inactive) | 2.32 µM (inactive) | 5.71 µM (inactive)
CC(C)(C)N/N=C(\C(=O)Nc1ccc([N+](=O)[O-])cc1[N+](=O)[O-])c1nc2ccc([N+](=O)[O-])cc2nc1O | 48.5 µM (inactive) | > 100 µM (inactive) | 37 µM (inactive) | 82.2 µM (inactive) | 33.3 µM (inactive) |  | 66.7 µM (inactive) | > 100 µM (inactive) | 24.5 µM (inactive) | 79.6 µM (inactive) | 47.3 µM (inactive) | > 100 µM (inactive) | 86.1 µM (inactive) | > 100 µM (inactive) | 23.7 µM (inactive) | > 100 µM (inactive) | 31.3 µM (inactive) | 58.7 µM (inactive) | > 100 µM (inactive) | > 100 µM (inactive)
COC1=CC(=O)C2=C(C1=O)[C@H]1CC[C@]3(C)C(=O)CC[C@H]3[C@@H]1CC2 | 18.1 µM (inactive) |  | 33.6 µM (inactive) | 22.2 µM (inactive) | 15.8 µM (inactive) | > 100 µM (inactive) | 24.2 µM (inactive) | 21.5 µM (inactive) | 39.8 µM (inactive) | 19 µM (inactive) | 2.38 µM (inactive) | 4 µM (inactive) | 27.1 µM (inactive) | > 100 µM (inactive) | 22.1 µM (inactive) | 30.1 µM (inactive) | 34.9 µM (inactive) | 18.6 µM (inactive) | 25.2 µM (inactive) | > 100 µM (inactive)
COC(=O)CCC(=O)NC1=C(Nc2ccc(OC)cc2)C(=O)c2ccccc2C1=O | 14.1 µM (inactive) | 2.05 µM (inactive) | 23.9 µM (inactive) | 15.4 µM (inactive) | 11.8 µM (inactive) | 32.7 µM (inactive) | 10.8 µM (inactive) | 18.9 µM (inactive) | 14.5 µM (inactive) | 4.11 µM (inactive) | 10.8 µM (inactive) | 10.7 µM (inactive) | 6.34 µM (inactive) | 19.2 µM (inactive) | 17.7 µM (inactive) | 3.16 µM (inactive) | 12.9 µM (inactive) | 4.15 µM (inactive) | 1.81 µM (inactive) | 17.8 µM (inactive)
CCCC(=O)Nc1cn(COC)c(C(=O)N2C[C@@H]3C[C@]34C2=CC(=O)c2[nH]cc(C)c24)n1 | 4.23 µM (inactive) | 1.72 µM (inactive) | 4.35 µM (inactive) | 12.3 µM (inactive) | 7.82 µM (inactive) | 7.96 µM (inactive) | 3.28 µM (inactive) | 5.31 µM (inactive) | 7.91 µM (inactive) | 2.45 µM (inactive) | 1.07 µM (active) | 8.47 µM (inactive) | 2.9 µM (inactive) | 9.48 µM (inactive) | 10.5 µM (inactive) | 7.62 µM (inactive) | 0.24 µM (active) | 6.31 µM (inactive) | 9.29 µM (inactive) | 18.5 µM (inactive)
CCOC(=O)C(=O)/C(=C/NC(=S)c1ccncc1)C(=O)OCC | > 100 µM (inactive) | > 100 µM (inactive) | > 100 µM (inactive) | 5.71 µM (inactive) | > 100 µM (inactive) |  | > 100 µM (inactive) | > 100 µM (inactive) | > 100 µM (inactive) | > 100 µM (inactive) | > 100 µM (inactive) | > 100 µM (inactive) | > 100 µM (inactive) | > 100 µM (inactive) | > 100 µM (inactive) | > 100 µM (inactive) | > 100 µM (inactive) | > 100 µM (inactive) | > 100 µM (inactive) | 9.68 µM (inactive)
O=C1CC2CC(CC3(CO3)C2)C1F (stereo not given) | > 100 µM (inactive) | > 100 µM (inactive) | > 100 µM (inactive) | > 100 µM (inactive) | > 100 µM (inactive) | > 100 µM (inactive) | > 100 µM (inactive) | > 100 µM (inactive) | > 100 µM (inactive) | > 100 µM (inactive) | > 100 µM (inactive) | > 100 µM (inactive) | > 100 µM (inactive) | > 100 µM (inactive) | > 100 µM (inactive) | > 100 µM (inactive) | > 100 µM (inactive) | > 100 µM (inactive) | > 100 µM (inactive) | > 100 µM (inactive)
O=c1[nH]c(=O)n(C2CC(O)C(COP(=O)(O)OC3CC(n4cc(F)c(=O)[nH]c4=O)OC3COP(=O)(O)OC3CC(n4cc(F)c(=O)[nH]c4=O)OC3COP(=O)(O)OC3CC(n4cc(F)c(=O)[nH]c4=O)OC3COP(=O)(O)OC3CC(n4cc(F)c(=O)[nH]c4=O)OC3COP(=O)(O)OC3CC(n4cc(F)c(=O)[nH]c4=O)OC3COP(=O)(O)OC3CC(n4cc(F)c(=O)[nH]c4=O)OC3COP(=O)(O)OC3CC(n4cc(F)c(=O)[nH]c4=O)OC3COP(=O)(O)OC3CC(n4cc(F)c(=O)[nH]c4=O)OC3COP(=O)(O)OC3CC(n4cc(F)c(=O)[nH]c4=O)OC3CO)O2)cc1F (stereo not given) | < 0.005 µM (active) |  | 2.36 µM (inactive) | < 0.005 µM (active) | 0.661 µM (active) | 0.493 µM (active) | 0.015 µM (active) | < 0.005 µM (active) | 0.129 µM (active) | < 0.005 µM (active) | 0.0126 µM (active) | 9.33 µM (inactive) | 0.0502 µM (active) | < 0.005 µM (active) | 0.194 µM (active) | < 0.005 µM (active) | < 0.005 µM (active) | < 0.005 µM (active) | 0.0685 µM (active) | 0.169 µM (active)
COC1CCC(OS(C)(=O)=O)C(C)O1 (stereo not given) | > 10 µM (inactive) | > 10 µM (inactive) | > 10 µM (inactive) |  | > 10 µM (inactive) | > 10 µM (inactive) | > 10 µM (inactive) | > 10 µM (inactive) | > 10 µM (inactive) | > 10 µM (inactive) | > 10 µM (inactive) | > 10 µM (inactive) | > 10 µM (inactive) | > 10 µM (inactive) | > 10 µM (inactive) | > 10 µM (inactive) | > 10 µM (inactive) | > 10 µM (inactive) | > 10 µM (inactive) | > 10 µM (inactive)
